Results from patent publication US9932309B2, “2-oxo-3,4-dihydropyridine-5-carboxylates and their use” (UNIVERSITE DE LILLE 2 DROIT ET SANTE, priority 2014, dated 2018).

Columns and labels:
mTGR5 = target: T1, mTGR5 (Mus musculus, UniProt Q80SS6); experiment: TGR5/CRE Luciferase Assay (mTGR5); assay type: cell-based; settings: for EC50: HEK 293 cells co-transfected with pCMV AC6-TGR5m and pCRE TA-Luciferase, overnight incubation; for mTGR5 % trans: percentage of the 10 μM LCA value, HEK 293 cells transfected with mTGR5
T1 construct: expressed in transfected cells; host or cells: HEK293 cells, transiently co-transfected with the pCRE TA-Luciferase reporter
T1 sequence (Q80SS6 1-329): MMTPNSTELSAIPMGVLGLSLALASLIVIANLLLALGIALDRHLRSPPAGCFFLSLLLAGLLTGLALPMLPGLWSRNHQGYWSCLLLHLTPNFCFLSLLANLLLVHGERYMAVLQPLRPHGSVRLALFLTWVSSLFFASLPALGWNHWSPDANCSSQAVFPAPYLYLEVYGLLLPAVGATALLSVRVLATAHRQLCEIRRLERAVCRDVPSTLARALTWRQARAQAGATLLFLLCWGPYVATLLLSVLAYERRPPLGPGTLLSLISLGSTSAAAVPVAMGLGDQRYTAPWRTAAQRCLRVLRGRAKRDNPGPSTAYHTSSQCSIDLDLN
Experimental: (§1) TGR5/CRE Luciferase Assay
(§2) In the following Tables TGR5 activation by compounds of the invention and subsequent increase in intracellular cAMP were evaluated using a luciferase reporter gene assay. Human embryonic kidney (HEK) 293 cells were transiently co-transfected with pCMV tag4b-TGR5 h (to follow hTGR5 activation) or pCMV AC6-TGR5m (to follow mTGR5 activation) expression plasmids and the pCRE TA-Luciferase reporter plasmid using the JET PEI reagent (Polyplus transfection). Transfected cells were seeded in 96-well plates and incubated overnight with the test compounds at increasing concentrations tested in duplicate. Lithocolic acid (LCA) at 10 μM was used as a positive reference compound. The cAMP-dependent luciferase expression was followed using the BrightGlo reagent according to the manufacturer (Promega) instructions. Luminescence was read with a Mithras plate reader (Berthold) or a Victor3™ V1420 (Perkin Elmer). […] Concentration-response curves were fitted by a nonlinear regression analysis to a 4 parameter logistic equation

hTGR5 = target: T2, hTGR5 (Homo sapiens, UniProt Q8TDU6); experiment: TGR5/CRE Luciferase Assay (hTGR5); assay type: cell-based; settings: for EC50: HEK 293 cells co-transfected with pCMV tag4b-TGR5h and pCRE TA-Luciferase, overnight incubation; for hTGR5 % trans: percentage of the 10 μM LCA value, HEK 293 cells transfected with hTGR5
T2 construct: expressed in transfected cells; host or cells: HEK293 cells, transiently co-transfected with the pCRE TA-Luciferase reporter
T2 sequence (Q8TDU6 1-330): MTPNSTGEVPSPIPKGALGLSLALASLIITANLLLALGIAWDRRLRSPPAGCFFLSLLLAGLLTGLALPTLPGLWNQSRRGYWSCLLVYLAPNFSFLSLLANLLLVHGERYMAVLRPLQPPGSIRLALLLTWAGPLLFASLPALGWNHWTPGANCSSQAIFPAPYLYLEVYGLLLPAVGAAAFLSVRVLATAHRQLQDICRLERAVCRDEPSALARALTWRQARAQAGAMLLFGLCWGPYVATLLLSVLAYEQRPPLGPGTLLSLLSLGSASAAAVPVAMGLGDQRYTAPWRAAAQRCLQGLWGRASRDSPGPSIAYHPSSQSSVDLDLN
Experimental: as §1, §2

| SMILES | EC50 (mTGR5) | mTGR5 % trans (mTGR5) | EC50 (hTGR5) | hTGR5 % trans (hTGR5) |
| --- | --- | --- | --- | --- |
| COc1ccccc1C1CC(=O)NC(C)=C1C(=O)OCc1ccccc1 (stereo not shown) [Compound 4, 4-(2-Methoxy-phenyl)-2-methyl-6-oxo-1,4,5,6-tetrahydro-pyridine-3-carboxylic acid benzyl ester] | 8.5 µM | 18% | 10 µM | 17% |
| COc1cccc(C2CC(=O)NC(C)=C2C(=O)OCc2ccccc2)c1 (stereo not shown) [Compound 5, 4-(3-Methoxy-phenyl)-2-methyl-6-oxo-1,4,5,6-tetrahydro-pyridine-3-carboxylic acid benzyl ester] | 11.1 µM | 34% | 10.6 µM | 31% |
| CC1=C(C(=O)OCc2ccccc2)C(c2ccccc2C(F)(F)F)CC(=O)N1 (stereo not shown) [Compound 7, 2-Methyl-6-oxo-4-(2-trifluoromethyl-phenyl)-1,4,5,6-tetrahydro-pyridine-3-carboxylic acid benzyl ester] | – | 14% | 5 µM | 22% |
| CC1=C(C(=O)OCc2ccccc2)C(c2ccc(C(F)(F)F)cc2)CC(=O)N1 (stereo not shown) [Compound 9, 2-Methyl-6-oxo-4-(4-trifluoromethyl-phenyl)-1,4,5,6-tetrahydro-pyridine-3-carboxylic acid benzyl ester] | 1.4 µM | 37% | 1.5 µM | 48% |
| CC1=C(C(=O)OCc2ccccc2)C(c2ccc(F)cc2)CC(=O)N1 (stereo not shown) [Compound 13, 4-(4-Fluoro-phenyl)-2-methyl-6-oxo-1,4,5,6-tetrahydro-pyridine-3-carboxylic acid benzyl ester] | 4.2 µM | 37% | 2.6 µM | 40% |
| CC1=C(C(=O)OCc2ccccc2)C(c2ccccc2)CC(=O)N1 (stereo not shown) [Compound 14, 2-Methyl-6-oxo-4-phenyl-1,4,5,6-tetrahydro-pyridine-3-carboxylic acid benzyl ester] | 10.3 µM | 18% | 7.6 µM | 30% |
| CC1=C(C(=O)OCc2ccccc2)C(c2ccc(Cl)cc2)CC(=O)N1C (stereo not shown) [Compound 17, 4-(4-Chloro-phenyl)-1,2-dimethyl-6-oxo-1,4,5,6-tetrahydro-pyridine-3-carboxylic acid benzyl ester] | 1.4 µM | – | 0.6 µM | – |
| COCCC1=C(C(=O)OCc2ccccc2)C(c2ccc(Cl)cc2)CC(=O)N1 (stereo not shown) [Compound 22, benzyl 4-(4-chlorophenyl)-6-(2-methoxyethyl)-2-oxo-3,4-dihydro-1H-pyridine-5-carboxylate] | 4.3 µM | 44% | 3.51 µM | 36% |
| O=C1CC(c2ccc(Cl)cc2)C(C(=O)NCc2ccccc2)=CN1 (stereo not shown) [Compound 25, N-benzyl-4-(4-chlorophenyl)-2-oxo-3,4-dihydro-1H-pyridine-5-carboxamide] | 0.5 µM | 36% | 1.22 µM | 43% |
| CN1C=C(C(=O)NCc2ccccc2)C(c2ccc(Cl)cc2)CC1=O (stereo not shown) [Compound 26, N-benzyl-4-(4-chlorophenyl)-1-methyl-2-oxo-3,4-dihydropyridine-5-carboxamide] | 1.8 µM | 20% | 4.6 µM | 10% |
| O=C(OCc1ccccc1)C1=CN(CC2CC2)C(=O)CC1c1ccc(Cl)cc1 (stereo not shown) [Compound 29, Benzyl 4-(4-chlorophenyl)-1-(cyclopropylmethyl)-2-oxo-3,4-dihydropyridine-5-carboxylate] | 1.5 µM | 37% | 1.26 µM | 59% |
| O=C(NCc1ccccc1)C1=CN(CC2CC2)C(=O)CC1c1ccc(Cl)cc1 (stereo not shown) [Compound 30, N-benzyl-4-(4-chlorophenyl)-1-(cyclopropylmethyl)-2-oxo-3,4-dihydropyridine-5-carboxamide] | 3.9 µM | 12% | 1.5 µM | 16% |
| COCCN1C=C(C(=O)OCc2ccccc2)C(c2ccc(Cl)cc2)CC1=O (stereo not shown) [Compound 32, Benzyl 4-(4-chlorophenyl)-1-(2-methoxyethyl)-2-oxo-3,4-dihydropyridine-5-carboxylate] | 1.1 µM | 55% | 0.6 µM | 77% |
| COCCN1C=C(C(=O)NCc2ccccc2)C(c2ccc(Cl)cc2)CC1=O (stereo not shown) [Compound 33, N-benzyl-4-(4-chlorophenyl)-1-(2-methoxyethyl)-2-oxo-3,4-dihydropyridine-5-carboxamide] | 11 µM | 14% | 6.4 µM | 42% |
| CN1C=C(C(=O)N(C)Cc2ccccc2)C(c2ccc(Cl)cc2)CC1=O (stereo not shown) [Compound 33a, N-benzyl-4-(4-chlorophenyl)-N,1-dimethyl-2-oxo-3,4-dihydropyridine-5-carboxamide] | 1.1 µM | 16% | 39 µM | 37% |
| COCCN1C(=O)CC(c2ccc(Cl)cc2)C(C(=O)OCc2ccccc2)=C1C (stereo not shown) [Compound 37, Benzyl 4-(4-chlorophenyl)-1-(2-methoxyethyl)-6-methyl-2-oxo-3,4-dihydropyridine-5-carboxylate] | 0.6 µM | – | 0.3 µM | – |
| C=CCN1C(=O)CC(c2ccc(Cl)cc2)C(C(=O)OCc2ccccc2)=C1C (stereo not shown) [Compound 38, Benzyl 1-allyl-4-(4-chlorophenyl)-6-methyl-2-oxo-3,4-dihydropyridine-5-carboxylate] | 1.5 µM | 54% | 1.1 µM | 75% |
| C=C(C)CN1C(=O)CC(c2ccc(Cl)cc2)C(C(=O)OCc2ccccc2)=C1C (stereo not shown) [Compound 39, Benzyl 4-(4-chlorophenyl)-6-methyl-1-(2-methylallyl)-2-oxo-3,4-dihydropyridine-5-carboxylate] | 1.4 µM | 73% | 1.3 µM | 82% |
| C#CCN1C(=O)CC(c2ccc(Cl)cc2)C(C(=O)OCc2ccccc2)=C1C (stereo not shown) [Compound 40, Benzyl 4-(4-chlorophenyl)-6-methyl-2-oxo-1-prop-2-ynyl-3,4-dihydropyridine-5-carboxylate] | 0.9 µM | 76% | 0.9 µM | 81% |
| CC1=C(C(=O)OCc2ccccc2)C(c2ccc(Cl)cc2)CC(=O)N1Cc1ccccc1 (stereo not shown) [Compound 41, Benzyl 1-benzyl-4-(4-chlorophenyl)-6-methyl-2-oxo-3,4-dihydropyridine-5-carboxylate] | 1.2 µM | 55% | 1.3 µM | 55% |
| CC1=C(C(=O)OCc2ccccc2)C(c2ccc(Cl)cc2)CC(=O)N1CC1CCC1 (stereo not shown) [Compound 44, Benzyl 4-(4-chlorophenyl)-1-(cyclobutylmethyl)-6-methyl-2-oxo-3,4-dihydropyridine-5-carboxylate] | 0.4 µM | 77% | 0.3 µM | 59% |
| CC1=C(C(=O)OCc2ccccc2)C(c2ccc(Cl)cc2)CC(=O)N1CC1CN(C)C1 (stereo not shown) [Compound 47, Benzyl 4-(4-chlorophenyl)-6-methyl-1-[(1-methylazetidin-3-yl)methyl]-2-oxo-3,4-dihydropyridine-5-carboxylate] | – | 0% | 6.6 µM | 22% |
| CC1=C(C(=O)OCc2ccccc2)C(c2ccc(Cl)cc2)CC(=O)N1CC1C[N+](C)(C)C1.[I-] (stereo not shown) [Compound 48, Benzyl 4-(4-chlorophenyl)-1-[(1,1-dimethylazetidin-1-ium-3-yl)methyl]-6-methyl-2-oxo-3,4-dihydropyridine-5-carboxylate iodide] | – | 0% | 12 µM | 13% |
| CC1=C(C(=O)OCc2ccccc2)C(c2ccc(Cl)cc2)CC(=O)N1CCNC(=O)OC(C)(C)C (stereo not shown) [Compound 52, Benzyl 1-[2-(tert-butoxycarbonylamino)ethyl]-4-(4-chlorophenyl)-6-methyl-2-oxo-3,4-dihydropyridine-5-carboxylate] | – | 0% | 2.5 µM | 18% |
